Reference: the supplement of paper PMC6045584
± gives the standard deviation of the averaged measurements.

What was measured:
SOTRASTAURIN/AEB071 = compound: CN1CCN(c2nc(C3=C(c4c[nH]c5ccccc45)C(=O)NC3=O)c3ccccc3n2)CC1 [SOTRASTAURIN/AEB071]; assay: surviving fraction relative to DMSO-only wells; higher = less growth inhibition; conditions: exposure time: 5 days
Outline: (§1)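 Tumour cell lines were grown to log phase and seeded at 250–500 cells per well in 384-well plates. They were exposed continuously to inhibitors at 0.5, 1, 5, 10, 50, 100, 500 and 1000 nM for five days, beginning 24 hours after seeding. Surviving fraction is CellTiter-Glo luminescence normalised to the median of DMSO-only wells.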

TEMOZOLOMIDE = compound: Cn1nnc2c(C(N)=O)ncn2c1=O [TEMOZOLOMIDE]; assay: as above; conditions: exposure time: 5 days
Outline: as §1

Row | Test System | surviving fraction (SOTRASTAURIN/AEB071; 0.5 nM) | surviving fraction (SOTRASTAURIN/AEB071; 1 nM) | surviving fraction (SOTRASTAURIN/AEB071; 5 nM) | surviving fraction (SOTRASTAURIN/AEB071; 10 nM) | surviving fraction (SOTRASTAURIN/AEB071; 50 nM) | surviving fraction (SOTRASTAURIN/AEB071; 100 nM) | surviving fraction (SOTRASTAURIN/AEB071; 500 nM) | surviving fraction (SOTRASTAURIN/AEB071; 1000 nM) | surviving fraction (TEMOZOLOMIDE; 0.5 nM) | surviving fraction (TEMOZOLOMIDE; 1 nM) | surviving fraction (TEMOZOLOMIDE; 5 nM) | surviving fraction (TEMOZOLOMIDE; 10 nM) | surviving fraction (TEMOZOLOMIDE; 50 nM) | surviving fraction (TEMOZOLOMIDE; 100 nM) | surviving fraction (TEMOZOLOMIDE; 500 nM) | surviving fraction (TEMOZOLOMIDE; 1000 nM)
1 | 22RV1 PROSTATE | 1.08 ± 0.014 | 1.11 ± 0.026 | 0.985 ± 0.013 | 1.05 ± 0.054 | 1.24 ± 0.26 | 1.2 ± 0.17 | 1.06 ± 0.099 | 1.03 ± 0.051 | 0.993 ± 0.017 | 1.09 ± 0.05 | 1.03 ± 0.029 | 1.08 ± 0.015 | 1.04 ± 0.057 | 1.13 ± 0.096 | 1.11 ± 0.048 | 1.09 ± 0.069
2 | 93VU HEADNECK | 1.03 ± 0.011 | 1.01 ± 0.036 | 1.07 ± 0.1 | 0.9817 ± 0.005 | 0.919 ± 0.067 | 0.887 ± 0.039 | 0.757 ± 0.055 | 0.789 ± 0.048 | 1.02 ± 0.1 | 1.04 ± 0.015 | 1.09 ± 0.057 | 1.03 ± 0.14 | 1.11 ± 0.022 | 1.17 ± 0.12 | 1 ± 0.11 | 1.02 ± 0.081
3 | 143B BONE | 1.067 ± 0.0071 | 1.08 ± 0.037 | 1.14 ± 0.14 | 1.04 ± 0.014 | 1.09 ± 0.037 | 1.14 ± 0.11 | 1.12 ± 0.096 | 1.09 ± 0.063 | 0.914 ± 0.096 | 1.0035 ± 0.00071 | 0.961 ± 0.047 | 1 ± 0.033 | 1.01 ± 0.013 | 1.02 ± 0.023 | 0.965 ± 0.03 | 1.04 ± 0.019
4 | A549 LUNG | 1.059 ± 0.0099 | 1.11 ± 0.015 | 1.076 ± 0.0085 | 1.06 ± 0.017 | 1.07 ± 0.021 | 1.102 ± 0.0085 | 1.07 ± 0.03 | 1.06 ± 0.048 | 1.03 ± 0.0082 | 1.03 ± 0.04 | 1.03 ± 0.037 | 1.06 ± 0.013 | 1.03 ± 0.024 | 1.04 ± 0.032 | 1.04 ± 0.044 | 1.06 ± 0.047
5 | ASKA SYNOVIAL | 1.14 ± 0.086 | 1.1 ± 0.074 | 1.18 ± 0.057 | 1.2 ± 0.097 | 1.03 ± 0.073 | 1.02 ± 0.028 | 0.998 ± 0.068 | 0.995 ± 0.077 | 1.03 ± 0.078 | 1.03 ± 0.066 | 1.12 ± 0.044 | 1.22 ± 0.12 | 1.14 ± 0.082 | 1.24 ± 0.02 | 1.15 ± 0.055 | 1.2 ± 0.058
6 | BT20 BREAST | 1.12 ± 0.043 | 1.14 ± 0.11 | 1.19 ± 0.052 | 1.15 ± 0.024 | 0.836 ± 0.013 | 0.893 ± 0.15 | 0.912 ± 0.029 | 0.972 ± 0.055 | 1.05 ± 0.097 | 1.07 ± 0.15 | 1.04 ± 0.085 | 1.13 ± 0.11 | 1.01 ± 0.053 | 1.08 ± 0.081 | 1.03 ± 0.053 | 1.15 ± 0.052
7 | BT549 BREAST | 0.889 ± 0.093 | 1.06 ± 0.068 | 1.01 ± 0.19 | 1.16 ± 0.2 | 0.904 ± 0.095 | 0.897 ± 0.035 | 0.919 ± 0.12 | 1.07 ± 0.16 | 1.1 ± 0.12 | 1.08 ± 0.085 | 1.05 ± 0.1 | 1.12 ± 0.13 | 1.09 ± 0.043 | 1.26 ± 0.1 | 1.09 ± 0.07 | 1.19 ± 0.14
8 | C33A CERVIX | 0.938 ± 0.17 | 1.05 ± 0.059 | 1.14 ± 0.045 | 1.05 ± 0.12 | 1.19 ± 0.071 | 1.16 ± 0.13 | 1.14 ± 0.077 | 1.2 ± 0.086 | 0.944 ± 0.13 | 0.901 ± 0.11 | 1.02 ± 0.056 | 0.929 ± 0.088 | 0.944 ± 0.047 | 1.05 ± 0.061 | 0.924 ± 0.012 | 0.984 ± 0.068
9 | CADOES1 SOFT TISSUE | 1.04 ± 0.11 | 0.908 ± 0.11 | 1 ± 0.18 | 0.926 ± 0.1 | 0.923 ± 0.019 | 0.973 ± 0.14 | 1.04 ± 0.055 | 0.962 ± 0.18 | 0.965 ± 0.14 | 0.979 ± 0.071 | 0.907 ± 0.07 | 0.877 ± 0.032 | 0.956 ± 0.068 | 0.937 ± 0.04 | 0.968 ± 0.096 | 0.969 ± 0.12
10 | CAL51 BREAST | 0.993 ± 0.025 | 0.969 ± 0.071 | 0.933 ± 0.031 | 0.962 ± 0.05 | 0.968 ± 0.077 | 1.04 ± 0.04 | 0.938 ± 0.077 | 0.824 ± 0.05 | 0.973 ± 0.038 | 1.05 ± 0.037 | 0.993 ± 0.02 | 1.07 ± 0.048 | 1.05 ± 0.057 | 1.06 ± 0.048 | 1.04 ± 0.032 | 1.02 ± 0.037
11 | CAL72 BONE | 1.1 ± 0.021 | 1.09 ± 0.029 | 1.05 ± 0.029 | 1.08 ± 0.014 | 1.05 ± 0.04 | 1.08 ± 0.072 | 1.06 ± 0.044 | 1.1 ± 0.015 | 1.04 ± 0.056 | 0.996 ± 0.098 | 1.04 ± 0.083 | 1.02 ± 0.081 | 1.1 ± 0.05 | 1.09 ± 0.087 | 1.076 ± 0.0011 | 1.07 ± 0.094
12 | CAL120 BREAST | 1.03 ± 0.042 | 1.01 ± 0.054 | 1.01 ± 0.03 | 1.02 ± 0.035 | 0.985 ± 0.051 | 0.955 ± 0.035 | 0.976 ± 0.046 | 0.981 ± 0.009 | 0.948 ± 0.059 | 0.963 ± 0.033 | 0.99 ± 0.048 | 0.96 ± 0.075 | 0.976 ± 0.075 | 0.988 ± 0.016 | 0.988 ± 0.053 | 0.989 ± 0.025
13 | CASKI CERVIX | 0.955 ± 0.051 | 0.962 ± 0.08 | 0.974 ± 0.035 | 0.906 ± 0.026 | 0.989 ± 0.12 | 0.898 ± 0.047 | 0.975 ± 0.021 | 0.863 ± 0.036 | 0.888 ± 0.013 | 0.88 ± 0.049 | 0.965 ± 0.044 | 1.01 ± 0.12 | 1 ± 0.023 | 1.04 ± 0.05 | 0.929 ± 0.072 | 1 ± 0.074
14 | CHLA90 AUTONOMIC GANGLIA | 0.975 ± 0.024 | 0.962 ± 0.046 | 1.02 ± 0.074 | 0.943 ± 0.081 | 1.05 ± 0.12 | 1 ± 0.083 | 1.06 ± 0.097 | 0.978 ± 0.17 | 0.928 ± 0.039 | 0.975 ± 0.047 | 0.941 ± 0.053 | 0.96 ± 0.023 | 0.963 ± 0.068 | 1.03 ± 0.055 | 1.02 ± 0.087 | 1.03 ± 0.098
15 | CME SYNOVIAL | 1.28 ± 0.26 | 1.3 ± 0.18 | 1.31 ± 0.13 | 1.38 ± 0.22 | 0.978 ± 0.13 | 1.21 ± 0.2 | 1.14 ± 0.059 | 1.12 ± 0.059 | 1.31 ± 0.12 | 1.21 ± 0.12 | 1.24 ± 0.033 | 1.33 ± 0.18 | 1.34 ± 0.12 | 1.46 ± 0.064 | 1.34 ± 0.027 | 1.39 ± 0.065
16 | COLO320DM LARGE INTESTINE | 1.09 ± 0.06 | 1.05 ± 0.14 | 1 ± 0.046 | 1.08 ± 0.12 | 1.01 ± 0.084 | 1.07 ± 0.047 | 0.994 ± 0.056 | 1.05 ± 0.059 | 1.21 ± 0.13 | 1.1 ± 0.036 | 1.13 ± 0.055 | 1.17 ± 0.12 | 1.1 ± 0.035 | 1.142 ± 0.011 | 1.15 ± 0.014 | 1.06 ± 0.047
17 | DU4475 BREAST | 1.02 ± 0.16 | 1.2 ± 0.081 | 1.05 ± 0.038 | 0.986 ± 0.027 | 0.989 ± 0.068 | 1.08 ± 0.068 | 0.901 ± 0.24 | 0.844 ± 0.038 | 0.877 ± 0.091 | 0.998 ± 0.053 | 0.973 ± 0.19 | 0.878 ± 0.093 | 0.851 ± 0.08 | 1.01 ± 0.2 | 0.972 ± 0.24 | 0.989 ± 0.067
18 | H23 LUNG | 1.03 ± 0.015 | 1.09 ± 0.046 | 1.07 ± 0.045 | 1.03 ± 0.016 | 1.1 ± 0.076 | 1.11 ± 0.092 | 1.14 ± 0.037 | 1.116 ± 0.011 | 0.987 ± 0.04 | 1.01 ± 0.031 | 1.01 ± 0.053 | 1.06 ± 0.044 | 0.997 ± 0.025 | 1.01 ± 0.022 | 0.966 ± 0.066 | 1.02 ± 0.051
19 | HCC78 LUNG | 1.08 ± 0.35 | 0.934 ± 0.14 | 0.96 ± 0.073 | 1 ± 0.12 | 1.16 ± 0.18 | 1.48 ± 0.17 | 1.11 ± 0.059 | 1.05 ± 0.058 | 0.804 ± 0.046 | 0.791 ± 0.14 | 0.941 ± 0.062 | 1.02 ± 0.069 | 0.984 ± 0.11 | 0.916 ± 0.14 | 0.907 ± 0.058 | 0.785 ± 0.18
20 | HCC202 BREAST | 1.17 ± 0.19 | 1.354 ± 0.0028 | 1.39 ± 0.86 | 1.05 ± 0.41 | 0.774 ± 0.33 | 0.88 ± 0.36 | 1.19 ± 0.05 | 1.123 ± 0.005 | 1.08 ± 0.35 | 1 ± 0.13 | 1.07 ± 0.32 | 0.9 ± 0.071 | 1.01 ± 0.17 | 1.29 ± 0.14 | 0.975 ± 0.035 | 1.254 ± 0.011
